Measurements reported in patent US12617831B2 (UNIVERSITE D'ANGERS, priority 2019, dated 2026).

Key:
Murine MC3T3-E1 cells = assay: Collagen maturity assay in MC3T3-E1 cultures (Example 2); type: cell-based; conditions: MC3T3-E1 cultures, 200 nM, vs vehicle (FIG. 2)
Experimental: At confluence, the propagation medium was replaced by the differentiation medium containing αMEM supplemented with 5% FBS, 5% bovine calf serum, 100 U/mL penicillin, 100 μg/mL streptomycin, 50 μg/ml ascorbic acid and various concentrations of analogues. This day was considered as day 1. The differentiation medium was replenished every two days. […] Cultures were rinsed at least six times with milliQ water, fixed in absolute ethanol, scrapped off the culture dish and transferred onto BaF2 windows where they were air-dried. Integrity of the collagen extracellular matrix was verified by comparing the obtained Fourier transform infrared spectrum with those of commercial collagen. Spectral analysis was performed using a Bruker Vertex 70 spectrometer (Bruker optics, Ettlingen, Germany) interfaced with a Bruker Hyperion 3000 infrared microscope equipped with a standard single element Mercury Cadmium Telluride (MCT) detector. Infrared spectra were recorded at a resolution of 4 cm^−1, with an average of 32 scans in transmission mode. Background spectral images were collected under identical conditions from the same BaF2 windows at the beginning and end of each experiment to ensure instrument stability. At least 20 spectra were acquired for each condition and analyzed with a lab-made routine script in Matlab R2016b (The Mathworks, Natick, MA).

[1] = tested on: human GIPr and the human GLP-2r; assay: Cyclic AMP assay (FRET, H74 probe), HEK-293 co-transfected with human GIPr and human GLP-2r; type: cell-based; conditions: HEK 293 co-transfected with human GIPr and human GLP-2r, 10^-9 M, 30 min (FIG. 18)
Experimental: (§1) Human HEK-293 cells were plated at a density of 2×10^5 cells/cm^2 in 4 well microslides (ibidi GmbH, Martinsried, Germany). […] Jalink (Netherland Cancer Institute, Amsterdam, Netherland). […] The image acquisition was performed with a 63 X, 1.4 N.A. oil immersion objective and a Hybrid® detector (Leica) and images were collected after 30 minutes. Donor excitation was made with a 458 nm Ar laser, donor emission was collected between 460-505 nm and acceptor emission between 520-600 nm by setting the SP8 spectrometer accordingly. FRET was expressed as the ratio between donor and acceptor signals.

[2] = tested on: MC3T3-E1 subclone 4 cells; type: cell-based, murine
Experimental: Briefly, MC3T3-E1 subclone 4 cells have been grown and propagated in α-MEM supplemented with 5% fetal bovine serum (FBS), 5% bovine calf serum (BCS), 100 U/mL penicillin, and 100 μg/mL streptomycin in a humidified atmosphere enriched with 5% CO2 at 37° C. […] This day was considered as day 1. The differentiation medium was replenished every two days. […] Cultures were rinsed at least six times with milliQ water, fixed in absolute ethanol, scrapped off the culture dish and transferred onto BaF2 windows where they were air-dried. Integrity of the collagen extracellular matrix was verified by comparing the obtained Fourier transform infrared spectrum with those of commercial collagen. Spectral analysis was performed using a Bruker Vertex 70 spectrometer (Bruker optics, Ettlingen, Germany) interfaced with a Bruker Hyperion 3000 infrared microscope equipped with a standard single element Mercury Cadmium Telluride (MCT) detector. Calibration of the infrared spectrometer is done once a week with a polystyrene film standard (Bruker optics). Infrared spectra were recorded at a resolution of 4 cm^-1, with an average of 32 scans in transmission mode. Background spectral images were collected under identical conditions from the same BaF2 windows at the beginning and end of each experiment to ensure instrument stability. At least 5 spectra were acquired for each condition and analyzed with a lab-made routine script (version 2.0) in Matlab R2016b (The Mathworks, Natick, MA). […] For GIP and GLP-2 dataset, the inventors used the collagen maturity data previously acquired and analyzed. First of all, collagen maturity obtained in control cultures, i.e. in the absence of double GIP/GLP-2 analogues, were averaged and subtracted to the all dataset. […] For each concentration of peptide, the mean, SD and number of events were computed. […] The GraphPad Prism analysis consisted in: […] Statistical Analysis […] Data are represented as mean±SD.

human GLP-2r = target: T1, human GLP-2r (Homo sapiens, UniProt O95838); assay: Cyclic AMP assay (FRET, H74 probe), HEK-293 transfected with human GLP-2r; type: cell-based; conditions: HEK 293 transfected only with human GLP-2r, 10^-9 M, 30 min (FIG. 17)
T1 construct: host or cells: HEK-293
T1 sequence (O95838 1-553): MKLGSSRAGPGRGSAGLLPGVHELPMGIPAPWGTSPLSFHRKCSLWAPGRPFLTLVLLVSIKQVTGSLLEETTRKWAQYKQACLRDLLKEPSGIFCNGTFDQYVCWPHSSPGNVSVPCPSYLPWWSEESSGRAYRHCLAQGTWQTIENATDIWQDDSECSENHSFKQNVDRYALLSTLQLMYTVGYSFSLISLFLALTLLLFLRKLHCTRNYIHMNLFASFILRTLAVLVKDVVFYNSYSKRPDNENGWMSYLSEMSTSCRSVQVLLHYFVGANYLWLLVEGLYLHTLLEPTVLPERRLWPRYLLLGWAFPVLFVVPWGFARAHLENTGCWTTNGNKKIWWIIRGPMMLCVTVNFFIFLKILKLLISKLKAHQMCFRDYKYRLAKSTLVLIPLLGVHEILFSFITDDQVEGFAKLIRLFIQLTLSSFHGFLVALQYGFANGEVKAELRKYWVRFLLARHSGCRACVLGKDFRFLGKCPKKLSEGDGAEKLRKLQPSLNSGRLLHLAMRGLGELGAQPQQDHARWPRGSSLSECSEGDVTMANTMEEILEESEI
Experimental: as §1

[3] = tested on: human peripheral blood mononuclear cells; assay: Human osteoclast formation from peripheral blood mononuclear cells; type: cell-based; conditions: human PBMC, M-CSF 25 ng/ml + sRANKL 50 ng/ml, 1 nM peptide (FIG. 3)
Experimental: Human peripheral blood mononuclear cells were isolated from 3 buffy coats obtained at the Etablissement Francais du Sang (Angers, France) as described in Mabilleau and Sabokbar (2009) PLoS One 4:e4173. Blood was diluted 1:1 in α-minimal essential medium (MEM) (Invitrogen, Paisley, UK), layered over Histopaque and centrifuged (700×g) for 20 min. The interface layer was resuspended in MEM then centrifuged (600×g) for a further 10 min after which the resultant cells were resuspended in media supplemented with 10% heat inactivated foetal calf serum (FCS, Invitrogen, Paisley, UK) and counted in a haemocytometer following lysis of red blood cells using a 5% (v/v) acetic acid solution. […] (2011) J Biol Chem 286:3242-3249). After 2 h incubation, cultures were vigorously rinsed in medium to remove non-adherent cells, and then maintained in 1 ml MEM/FCS with 25 ng/ml recombinant human M-CSF, 50 ng/ml recombinant human sRANKL (added at day 7) and various concentrations of gut hormone analogues (added at day 7). Cultures were terminated after 14 days to assess the extent of osteoclast formation (TRAcP staining as described below). All factors were replenished every 2-3 days. […] Cultures were rinsed three times in distilled water and the residual activity was inhibited by 4% NaF for 30 minutes. […] The number of newly generated were assessed using light microscopic examination.

Murine Raw 264.7 cells = type: cell-based
Experimental: Murine Raw 264.7 cells were grown and expanded in propagation medium containing Dulbecco's modified Eagle medium (DMEM-Gibco) supplemented with 10% fetal bovine serum (FBS-Lonza), 100 U/mL penicillin and 100 μg/mL streptomycin (Gibco) in a humidified atmosphere enriched with 5% CO2 at 37° C. The first passage after thawing Raw 264.7 cells was considered as passage 1. Cells were used up to passage 8. […] Cultures were rinsed three times in distilled water and the residual activity was inhibited by 4% NaF (Sigma-Aldrich) for 30 min. Cells were then rinsed in distilled water and allowed to dry. TRAcP positive cells, with more than three nuclei, were identified as osteoclasts. The number of newly generated osteoclasts was assessed using light microscopic examination by a histologist that was blinded to the treatment intervention. […] For each concentration of peptide, the mean, SD and number of events were computed.

[4] = tested on: ovariectomy-induced bone loss in mice; assay: Trabecular bone microarchitecture, fifth lumbar vertebra, ovariectomized mice; type: in vivo; conditions: OVX mice, L5, once 100 μg/kg iv, vs vehicle
Experimental: At 16 weeks of age, ALZET osmotic pumps (model number 2006, Durect Corp., Cupertino, CA) filled with the below saline or peptide were implanted subcutaneously between the two scapula under general anesthesia in 32 mice. Successful filling of pumps was verified by weighting the pump before and after filling. At 20 weeks of age, ALZET osmotic pumps were replaced by similar pumps to ensure delivery for four new weeks. […] This dose and regimen of zoledronic acid was equivalent to the 5 mg infusion approved for the treatment of post-menopausal osteoporosis in humans. Analyses of vertebral bodies of the fifth lumbar vertebra (L5) were performed with a Nanotom nanotomograph (Phoenix, GE, USA) operated at 85 kV, 220 μA, 1000 ms integration time. The isotropic pixel size was fixed at 4 μm, the rotation step at 0.25° and exposure was done with a 0.1 mm copper filter. Each 3D reconstruction image dataset was binarized using global thresholding. Trabecular volume of interest was computerized on coronal sections of the L5 vertebral body. Trabecular VOI was spread over the entire vertebral body excluding the first and last 80 μm from the anterior and posterior cortical wall. All microCT/NanoCT parameters were determined according to guidelines and nomenclature proposed by the American Society for Bone and Mineral Research (Bouxsein et al., 2010).

[5] = tested on: ovariectomy-induced bone loss in mice; assay: Bone matrix composition by FTIRI at the femur midshaft, ovariectomized mice; type: in vivo; conditions: OVX mice, cortical bone femur, once 100 μg/kg iv, vs vehicle
Experimental: At 16 weeks of age, ALZET osmotic pumps (model number 2006, Durect Corp., Cupertino, CA) filled with the below saline or peptide were implanted subcutaneously between the two scapula under general anesthesia in 32 mice. Successful filling of pumps was verified by weighting the pump before and after filling. At 20 weeks of age, ALZET osmotic pumps were replaced by similar pumps to ensure delivery for four new weeks. […] This dose and regimen of zoledronic acid was equivalent to the 5 mg infusion approved for the treatment of post-menopausal osteoporosis in humans. After three-point bending experiments, femurs were embedded undecalcified in pMMA at 4° C. One-micrometer cross-sectional sections of the midshaft femur were sandwiched between BaF2 optical windows and Fourier transform infrared imaging (FTIRI) assessment was performed in the posterior quadrant. FTIRI was performed with a vertex 70 spectrometer (Bruker, Ettlingen, Germany) interfaced with a Hyperion 3000 microscope and a focal plane array detector (64×64 pixels) covering a field of view of 180×180 μm. Nine field-of-view were stitched together to allow sufficient bone to be analyzed. Sections were scanned with a spectral resolution of 8 cm^-1 (spectral region 900-2000 cm^-1). Each spectrum was corrected for Mie scattering with the […]5 algorithm (kind gift of Prof Peter Gardner, University of Manchester, UK) prior to be subjected to pMMA subtraction. Evaluation of spectral images was done with a lab-made routine script in Matlab R2016b (The Mathworks, Natick, MA) as described in Aguado et al. (2017) Calcif Tissue Int 100:332-340. FTIR bone parameters ([…] (2012) Methods Mol Biol 816:517-525) calculated were: (1) phosphate/amide ratio (area of v1, v3 phosphate/area amide1); (2) acid phosphate content (intensity ratio 1127 cm^-1/1096 cm^-1) (Spevak et al. (2013) Calcif Tissue Int 92:418-428); (3) mineral crystallinity (intensity ratio 1030 cm^-1/1020 cm^-1), reflecting crystal size and perfection; […] (2001) J Bone Miner Res 16:893-900). For each of the compositional parameters, the mean and full width at half maximum of the pixel distribution (excluding the zero background values) were computed and represented as mean and heterogeneity.

## CC[C@H](C)[C@H](NC(=O)[C@H](Cc1ccccc1)NC(=O)[C@H](CC(=O)O)NC(=O)[C@H](CCCNC(=N)N)NC(=O)[C@H](C)NC(=O)[C@H](C)NC(=O)[C@H](CC(C)C)NC(=O)[C@H](CC(N)=O)NC(=O)[C@H](CC(=O)O)NC(=O)[C@H](CC(C)C)NC(=O)[C@@H](NC(=O)[C@@H](NC(=O)[C@H](CC(N)=O)NC(=O)[C@H](CCSC)NC(=O)[C@H](CCC(=O)O)NC(=O)[C@H](CC(=O)O)NC(=O)[C@H](CO)NC(=O)[C@H](Cc1ccccc1)NC(=O)[C@H](CO)NC(=O)CNC(=O)[C@H](CC(=O)O)NC(=O)CNC(=O)[C@@H](N)Cc1c[nH]cn1)[C@@H](C)O)[C@@H](C)CC)C(=O)N[C@@H](CC(N)=O)C(=O)N[C@@H](Cc1c[nH]c2ccccc12)C(=O)N[C@@H](CC(C)C)C(=O)N[C@H](C(=O)N[C@@H](CCC(N)=O)C(=O)N[C@H](C(=O)N[C@@H](CCCCN)C(=O)N[C@H](C(=O)N[C@H](C(=O)N[C@@H](CC(=O)O)C(=O)O)[C@@H](C)O)[C@@H](C)CC)[C@@H](C)O)[C@@H](C)CC [[Gly^2]GLP-2]
Murine MC3T3-E1 cells
  increase in collagen maturity: ~111%
[1]
  intracellular levels of cAMP: increased intracellular levels of cAMP
[2]
  EC50: 63 ± 42 pM
[2]; MC3T3-E1, day 14
  Emax for dose-effect curves on collagen maturity: 119.3%
Human GLP-2r
  intracellular levels of cAMP: increased intracellular levels of cAMP
[3]
  reduction in osteoclast formation: 34%
Murine Raw 264.7 cells
  EC50: 32.2 pM
Murine Raw 264.7 cells; Raw 264.7, RANKL 10 ng/ml, 110 h, * values determined from previous experiments, in pM
  IC50 computed from curve fitting of osteoclastogenesis vs. peptide concentration: 32.2*
Murine Raw 264.7 cells; Raw 264.7, * data obtained in previous experiments
  Emax, maximum inhibitory effect on osteoclastogenesis: 68.12* %

## O=P(O)(O)C(O)(Cn1ccnc1)P(=O)(O)O [zoledronic acid]
[4]
  increase in trabecular bone mass (BV/TV): 15%
  increase in trabecular number: 12%
[5]
  augmentation of mineral crystallinity heterogeneity: 21%
